From ChEMBL document CHEMBL3507680, “University of Dundee, Gates Library screen for HepG2 cell viability”

Assay: Human HepG2 cell viability assay in 384 well format
Assay type: toxicity, cell-based
Design: dose 125 nL, time 70.5 hour; concentration not given beside the values
Conditions: HepG2 cells, read-out: Inhibition

Compound	cytotoxicity at 70.5 h [%]
Cc1cc(C)n(C2CCCN(C(=O)CCNc3ncccn3)C2)n1 (centres undefined)	-2.87
CCNC(c1ccc(C(C)C)cc1)c1cccnc1 (centres undefined)	2.26
Cc1ccc(N2CCCC(NCC(=O)Nc3cc(C)nn3C)C2)nn1 (centres undefined)	-4.79
CCNC(c1ccc(Br)cc1)c1cccnc1 (centres undefined)	1.53
CCNC(c1ccc(C)cc1)c1cccnc1 (centres undefined)	0.38
Cc1cc(C)n(C2CCCN(C(=O)CCCc3ccccn3)C2)n1 (centres undefined)	-0.29
Cc1noc(CN2CCCC(Cn3nc(C)nc3C)C2)n1 (centres undefined)	-6.06
Cc1ccc(NC2CCN(C(=O)Cc3ccc(C)s3)CC2)nn1	-7.07
CCc1ncc(C(=O)N2CCCC2Cn2cccn2)s1 (centres undefined)	12.3
CCc1noc(CN2CCCC(Cn3nc(C)nc3C)C2)n1 (centres undefined)	-12.1
Cc1nc(C)n(CC2CCCN(Cc3noc(C)n3)C2)n1 (centres undefined)	-5.88
COc1ncccc1CNCc1c(C)nn(C)c1N(C)C	19.7
Cc1ccc(O)c(C(=O)N2CCCC(NC(=O)C(C)C)C2)c1 (centres undefined)	-6.92
O=C(NCCc1cccs1)NCC(O)c1cccc(F)c1 (centres undefined)	-7.4
Cc1ccc(-c2n[nH]cc2CNCC2CCN(CC(C)O)CC2)cc1 (centres undefined)	-1.53
COc1ccc(CCNC(=O)NCC(O)c2cccc(F)c2)cc1 (centres undefined)	8.74
O=C(c1cnc(C2CC2)s1)N1CCCC1Cn1cccn1 (centres undefined)	-4.89
CCOc1cccc2c1OCC(C(=O)NS(=O)(=O)c1c(C)noc1C)=C2	-2.53
Cc1cnn(CC2CCCN2C(=O)c2cnc(-c3ccco3)s2)c1 (centres undefined)	-9.06
CCN(c1cc(C)cc(C)c1)S(=O)(=O)c1cc(C(=O)O)cs1	-7.47
Cc1cnn(C2CCCN(C(=O)c3cn4ccccc4n3)C2)c1 (centres undefined)	17.4
COC(=O)c1cccc(C(=O)NCc2ccc3c(c2)CCCN3C)c1	-3.61
Cc1ccc(N(C)S(=O)(=O)c2cc(C(=O)O)cs2)c(C)c1	0.683
CCn1cnnc1CNC(=O)N(C)Cc1cccc(OC(F)F)c1	-0.632

Compound	cytotoxicity at 70.5 h [%]
CC(C)c1cnc(CN(C)C2CCN(CCn3cc(C#N)cn3)C2)o1 (centres undefined)	-2.83
Cc1nccn1CCCC(=O)N1CCCN(c2cccnn2)CC1	-2.35
CN(C)c1ncccc1C(=O)N1CCCC1Cn1cccn1 (centres undefined)	-5.68
O=C(c1cnn(-c2ccccc2Cl)c1)N1CCN(CCO)CC1	-5.36
Cc1nn(C)c(Cl)c1C1CCCN1C(=O)c1ccnn1C (centres undefined)	-14.4
COc1ccc(CNC(=O)NCCc2csc(C)n2)cn1	10.9
CN(CCc1ccccc1)Cc1nc2c(cnn2C)c(=O)[nH]1	-10.9
Cc1ncc(C(=O)N2CCCC(n3cccn3)C2)s1 (centres undefined)	-11.8
O=C(c1cnc(-c2ncccn2)s1)N1CCCC(n2cccn2)C1 (centres undefined)	-10.1
Cc1nc(C)n(CC2CCCN2c2ncnc3ccsc23)n1 (centres undefined)	-5.53
Cc1cnn(CC2CCCN2C(=O)c2ccccc2-n2cccn2)c1 (centres undefined)	-12.6
COc1c(C2CCCN2C(=O)c2nccnc2N)c(C)nn1C (centres undefined)	-13
Cc1ncncc1C(=O)N1CCCC1c1c(C)nn(C)c1Cl (centres undefined)	-10.6
Cc1nn(C)c(Cl)c1C1CCCN1C(=O)c1cnccn1 (centres undefined)	-7.92
O=C(CCCc1ccccn1)N1CCCC1c1noc(C2CC2)n1 (centres undefined)	-9.72
CN(Cc1nnc2n1CCC2)C(=O)c1ccc2c(c1)OCCO2	44.2
Cc1csc(N2CCCN(C(=O)Cc3ccc(C)s3)CC2)n1	16.1
CCOc1ccc(NC(=O)N(C)Cc2cnn(C)c2)c(C)c1	-5.21
CC(C)c1ccc(OCC(=O)N2CCOCC2c2ncon2)cc1 (centres undefined)	-8.54
Cc1csc(N2CCCN(C(=O)Cc3cccs3)CC2)n1	-5.57
CC(C)n1nc2c(cc1=O)CN(CCCN1CCCC1=O)CC2	-9.82
CC(C(=O)NCc1ccc(N2CCCC2)nc1)S(C)(=O)=O (centres undefined)	15.7
CC(C(=O)NCc1ccc(N2CCCCC2)nc1)S(C)(=O)=O (centres undefined)	-5.42
Cc1csc(N2CCN(C(=O)NCCNc3ncccn3)CC2)n1	-5.98

Compound	cytotoxicity at 70.5 h [%]
O=C(NCCNc1ncccn1)C1CC(=O)N(Cc2ccccc2)C1 (centres undefined)	-8.64
COc1ccc(NC(=O)NCCCn2nc3ccccn3c2=O)cc1	-3.39
O=C(NCCCn1nc2ccccn2c1=O)Nc1ccccc1Cl	0.153
O=C(NCc1cc[nH]n1)NCC(O)COc1cccc(F)c1 (centres undefined)	22.7
Cc1nc(CNC(=O)NCC(O)c2ccc(F)cc2F)cs1 (centres undefined)	-12
Cc1noc(C)c1CC(=O)OCC(=O)N1CCc2sccc2C1	7.95
O=C(CCN1CCCN(c2nccs2)CC1)Nc1ccccc1	28.8
CN(CCNC(=O)c1scnc1Cl)c1ccccc1	2.36
Cc1csc(N2CCCN(C(=O)c3c(C)oc(C)c3C)CC2)n1	-1.91
Cc1ccc(CNC(=O)N2CCN(Cc3ccsc3)CC2)n1C	30.9
CCc1[nH]ncc1C(=O)N1CCCC(n2cccn2)C1 (centres undefined)	3.94
Cc1ccc(N2CCCN(C(=O)c3c(C)oc(C)c3C)CC2)nn1	-4.32
NC(=O)CN1CCCN(C(=O)Cc2ccc3ccccc3c2)CC1	33.3
Cc1ccc(NC2CCN(C(=O)c3n[nH]c4ccccc34)CC2)nn1	1.27
Cc1ccc(NC2CCN(C(=O)c3cnc(C)s3)CC2)nn1	-6.52
c1ccc2cc(OCCN3CCn4c(nnc4C4CC4)C3)ccc2c1	31
O=C(CCN1CCCN(c2nccs2)CC1)NCC1CCCCC1	-8.1
Cc1ccc(-c2nc(CN3CCn4c(nnc4C4CC4)C3)co2)cc1	-5.93
Cc1ccc(C(=O)N2CCN(Cc3ccsc3)CC2)n1C	-7.84
Cc1cnc(CN(C)C2CCN(CCc3cnn(C)c3)C2)o1 (centres undefined)	-0.678
Cc1csc(N2CCCN(C(=O)c3cnns3)CC2)n1	31.6
CCCn1[nH]cc/c1=N\C(=O)CN1CCc2cnc(CC)nc2C1	2.85
CC1CCN(C(=O)c2cccc3ncccc23)CC1	4.77
Cc1nc(C2CCCN2Cc2ncc(C(C)C)o2)no1 (centres undefined)	42.3

Compound	cytotoxicity at 70.5 h [%]
N#Cc1ccccc1OCCN1CCn2c(nnc2C2CC2)C1	5.39
CCn1ccnc1CN1CCC(N(C)Cc2ncc(C)o2)C1 (centres undefined)	20.1
Cc1cnn(CC2CCCCN2CCn2cncn2)c1 (centres undefined)	1.52
O=C(Cn1cccnc1=O)NCCc1ccc2c(c1)OCCO2	5.28
NC(=O)CC1CCN(C(=O)NCc2ccccc2-n2cccn2)CC1	-1.19
OC(COc1ccccc1)CN1CCc2c(ncn2C2CC2)C1 (centres undefined)	-6.53
Cc1nc(CN2CCN(Cc3nccn3C)CC2)no1	3.86
CCC(=O)N(C)CC(=O)Nc1ccc(Br)cn1	2.06
Cc1cnn(CC2CN(CC(=O)N(C)Cc3cccs3)CCO2)c1 (centres undefined)	-1.56
Cc1cc(C)n(CC2CCCCN2C(=O)c2ccc3nncn3c2)n1 (centres undefined)	-2.04
CCc1nc(C2CCCN2C(=O)c2c[nH]c(C)n2)no1 (centres undefined)	27.8
CCc1nc(C2CCCN2C(=O)c2cc(C3CC3)[nH]n2)no1 (centres undefined)	-1.42
O=C(NCc1ccccc1-n1cccn1)N1CCN2CCCCC2C1 (centres undefined)	1.19
Cc1nn(C)cc1CCC(=O)N1CCCC(n2cncn2)C1 (centres undefined)	6.4
Cc1nc(C)n(CC2CCCN2Cc2cn(-c3ccccc3)nn2)n1 (centres undefined)	2.44
O=C(Cc1csc(-c2nnc[nH]2)n1)N1CCCC1Cn1cccn1 (centres undefined)	-8.18
CN(C)CC1CN(Cc2nnc(-c3ccccc3Cl)o2)CCO1 (centres undefined)	3.65
CN(C)CC1CN(Cc2coc(-c3ccccc3Cl)n2)CCO1 (centres undefined)	7.1
CCN(CC)C1CCN(C(=O)NCc2nncn2CC)CC1	-0.0969
CC(NC(=O)N1CCN(c2ccccc2)CC1)c1nncn1C (centres undefined)	-15.6
Cn1ncc(NCc2cc(F)cc(F)c2)c(Cl)c1=O	-7.18
CC1CN(c2ccc(CNC(=O)c3ccn(C)c(=O)c3)cn2)CCO1 (centres undefined)	-8.78
Cc1cc(NC(=O)N(CC2CCOC2)C2CC2)no1 (centres undefined)	-11.9
Cc1noc(C2CCN(Cc3cc(=O)n(C)c(=O)n3C)CC2)n1	-13.2

Compound	cytotoxicity at 70.5 h [%]
Cn1cnnc1C1CCCN(C(=O)c2cc(Cl)c3c(c2)OCO3)C1 (centres undefined)	-11.6
CCCn1[nH]cc/c1=N\C(=O)CN1CCOC(Cn2cc(C)cn2)C1 (centres undefined)	-14.6
Cn1ncc(NCc2cccc(COC(C)(C)C)c2)c(Cl)c1=O	7.28
CC(CC#N)NC(=O)c1cc(Br)c2c(c1)OCCO2 (centres undefined)	0.544
Cn1cnc2c1CCN(CCCc1ccccc1)C2	-1.08
Cn1ccc(C(=O)NCc2ccc(N3CCCC3)nc2)cc1=O	-5.51
Cc1ccc(C(=O)N2CCCS2(=O)=O)cc1Cl	-19.9
CCOCCN1CCCC(c2cc(C(N)=O)[nH]n2)C1 (centres undefined)	-13.1
COc1ccccc1OCCN1CCCC(c2cc(C(N)=O)[nH]n2)C1 (centres undefined)	-9.71
Cc1cc(C2CCCN2Cc2cc(=O)n(C)c(=O)n2C)on1 (centres undefined)	-12.3
Cn1nc2c(cc1=O)CN(Cc1nc(-c3cccs3)no1)CC2	-14.3
Cc1cc(CN(C)C(=O)c2ccc(C(F)(F)F)nc2)no1	-19.6
Cn1c(C2CC2)nc2c1CCN(CCS(=O)(=O)c1ccccc1)C2	-14.4
COCCc1noc(CN2CCCC2Cn2cc(C)cn2)n1 (centres undefined)	18.1
CCN1CCC(NC(=O)CN2CCCCC2Cn2cc(C)cn2)CC1 (centres undefined)	53.1
CCOCCN1CCn2c(C)nnc2C1	16.1
CCN(Cc1nc2c(cnn2C)c(=O)[nH]1)c1cccc(F)c1	-5.89
Cc1cc(CN2CCN(c3nn4cc(C)nc4s3)CC2)on1	-7.1
COc1ccc(COCC(O)CNC(=O)c2cc(C)cc(C)c2)cc1 (centres undefined)	-11.8
O=C(Nc1ccccc1F)N1CCN(Cc2noc(C3CC3)n2)CC1	-10.2
Cc1nc(C)n(CC2CCCN(c3ncnc4[nH]ccc34)C2)n1 (centres undefined)	3.27
Cc1cnn(CC2CCCCN2C(=O)c2cc(C(N)=O)cs2)c1 (centres undefined)	28.2
Cc1nn(C)c(N(C)C)c1CNCc1ccc(OCC(N)=O)cc1	0.111
